Measurements from US12076331B2, “Inositol derivatives for use in pathological crystallization” (ETH Zurich, priority 2015, dated 2024).
“Also recorded” adds a separate entry of the source.

Tests used:
[1] = system: RPTEC/TERT 1 human proximal tubule cells; assay: Imaging assay of CaP adhesion/deposition and cellular changes on RPTEC monolayers; assay type: cell-based; details: RPTEC, 7 mM phosphate, 5 mM calcium, 24 h
Description: (A) Heatmap and hierarchical clustering of extracted image features. (B) Selected single features describing cellular changes upon increasing (OEG2)2-IP4 concentrations are depicted. Total cell count, dead cell count, single cell area and single cell solidity, a measure of cell compactness, are shown. (C) Selected single features describing changes in the CaP deposition and membrane pattern upon increasing (OEG2)2-IP4 concentrations are depicted. The total area of the binary calcein staining, colorimetric quantification of calcium content extracted from the monolayer, the maximum intensity of the calcein fluorescence, structural similarity index metric (SSIM) and the correlation of the CellMask channel image are shown. (D) Example brightfield, calcein, CellMask and EthD channel images and two zoomed-in regions of interests (ROI) of RPTEC treated with 13 μM (OEG2)2-IP4 are shown. Mean scaled values per individual experiment are plotted (N=3). Pos.ctrl presents treatment with 5/7 mM Ca/P, neg.ctrl presents medium without Ca/P spiking (=1/1 mM Ca/P present in normal cell medium). Mean of three individual experiments and SD is plotted as grey horizontal and vertical line respectively, one-way ANOVA with Dunnet's multiple comparison between each concentration to pos. ctrl was performed (* p<0.01).
RPTEC/TERT 1 monolayers at confluence were treated with medium spiked with 7 mM disodium phosphate, 5 mM calcium chloride and compound and were incubated for 24 h. The amount of CaP deposits and the extent of cell injury were detected by calcein and EthD staining, respectively. Fluorescence images were quantified using Matlab. Quantification of the area covered with CaP deposition on RPTEC monolayers with (A) OEG2-IP5, (B) OEG11-IP5, (C) (OEG2)2-IP4, and (D) OEG8-(IP5)2 treatment. (N=3, mean+SD, one-way ANOVA with Dunnett's multiple comparison, * p<0.05, ** p<0.01, *** p<0.001).
RPTEC/TERT 1 human proximal tubule cells (RPTEC) were cultured in T75 tissue culture flasks using ProxUp basal medium mixed with ProxUp supplements at 37° C. and 5% CO2 according to manufacturer's recommendations. Cells were used up to passage 30 and regularly tested for Mycoplasma infections. For experiments, RPTEC were cultured in 24-well plates at a seeding density of 150′000 cells/cm^2. Cell viability assessment and cell counting before seeding was performed using an automated cell counter (BioRad TC 20, Hercules, CA, USA).
For the comparison of selected IP6 analogues, ProxUp basal medium was prepared with the selected inhibitor and added to each well. Then, CaP precipitation was induced by direct addition of first, phosphate and second, calcium. Final concentrations of 7 mM phosphate and 5 mM calcium were used. Cells were incubated for 24 h at 37° C. and 5% CO2. Spiked medium was removed, and cells were washed twice with PBS before staining.
For staining, ProxUp basal medium was mixed with calcein (500 nM final concentration), EthD (6 μM final concentration), CellMask stain ([…]) and Hoechst 33342. Staining mixture was added to RPTEC and cells were incubated for 30 min in the dark at 37° C. and 5% CO2. Staining solution was removed, cells were washed with PBS once and ProxUp basal medium was added. Cells were immediately imaged after staining. Images were obtained by epifluorescence microscopy at 37° C., using a Leica CTR6000 microscope. For quantification 3 wells/condition were prepared and 3 images/well were taken. For preliminary adhesion experiments images were taken with a 10× objective, for the imaging assay 20× objective images were taken.
Multichannel images were saved as individual channel images in 8-bit tiff format. For analysis Hoechst channel images were thresholded using the triangle threshold. Touching nuclei of the binary image were further segmented using the watershed algorithm with the distance transform of the binary image as input and local maxima thereof as seeds. […]

[2] = In-solution screening of CaP precipitation and aggregation in artificial renal tubular fluid (RTF); assay type: physicochemical; details: 9 mM phosphate, 8 mM calcium, 4 h
Procedure: (§1) Effects of (A) OEG2-IP5, (B) OEG11-IP5, (C) (OEG2)2-IP4, (D) (OEG11)2-IP4 and (E) OEG8-(IP5)2. on CaP precipitation in RTF spiked with 9 mM disodium phosphate and 8 mM calcium chloride were assessed by light microscopy followed by automated image analysis at t=4 h. Quantification of the total area covered with CaP precipitates/total area field of view (N=3, mean+SD, normalized to the control).
as §1, with “mean size of aggregates/field” for “total area covered with CaP precipitates/total area field”, “view normalized to the ctrl” for “view”
Overview table showing the minimal concentration of compound (FIG. 3 for the chemical structures) required to achieve complete inhibition of CaP precipitation (total area covered with crystals <10% of total area control); and minimal concentration required to prevent CaP crystal aggregation in the CaP screening assay (CaP aggregate size <50% of aggregate size control) (N=3).
An artificial renal tubular fluid (RTF) with a final composition of 0.05 mM oxalate, 0.005 mM sulphate, 408 mM sodium, 424 mM chloride, 0.26 mM potassium, 4 mM magnesium and 0.2 mM citrate in double distilled water was prepared according to a literature report (Fasano, J. M. et al., Kidney Int. 59, 169-178. DOI: 10.1046/j. 1523-1755.2001.00477.x, 2001). The solution was filtered with a 0.45-μm syringe filter. Twenty mM Bis-Tris buffer was added to the reported protocol to ensure pH stability throughout experiments and pH was set to 7.2. The artificial RTF was stored at room temperature for up to four months. Stock solutions of 0.25 M phosphate and 1 M calcium were prepared in double distilled water and were stored separately at −20° C.
Twenty-x final concentration phosphate, 20× final concentration calcium and 10× final concentration compound dilutions were prepared in RTF. Assay mixture consisting of 80% RTF, 10% compound dilution, 5% phosphate dilution and 5% calcium dilution was prepared in Eppendorf tubes as follows. RTF (320 μL) was mixed with 20 μL phosphate dilution (final concentration of 9 mM), 40 μL compound dilution and 20 μL calcium dilution (final concentration of 8 mM). The assay mixture was vortexed after adding each component and 380 μL of the mixture were immediately added to 8-well glass bottom slides and incubated for 4 hat RT. CaP precipitation was assessed using a Leica DM 6000B microscope (Leica Microsystems, Wetzlar, Germany) in brightfield mode. For quantification 3 wells/condition with 3-4 images/well were imaged with a 40× objective. The total area covered with CaP deposits in percentage of the field of view and the mean size of CaP aggregates were determined.
In a first step, the influence of selected IP6 analogues (FIG. 5) on CaP precipitation and growth was assessed in vitro using artificial renal tubular fluid (RTF) (Table 1). In a previous study, the inventors investigated CaP protein particle formation in serum. However, an important difference to cardiovascular calcification lies in the extremely low protein content of the renal tubular fluid vs. the high abundance of proteins in blood, which can stabilize amorphous particles. Two cut-offs were chosen for assessing efficacy. First, complete inhibition was defined as a >90% reduction of detected CaP precipitates compared to the control sample without compound. Second, inhibition of CaP aggregation was defined as a >50% reduction of the mean size of aggregates when compared to the control.

[3] = system: transition of primary CPPs to secondary CPPs; assay: CPP maturation time in human serum, similar test with test compounds added last (FIG. 2); details: test compounds added to the reaction mixture last
Procedure: (§2) The inventors performed an in vitro assay that measures the propensity for calcification of human serum and has been clinically validated as a predictor of all-cause mortality in CKD patients and renal transplant recipients (as described in Pasch, Journal of the American
Society of Nephrology 23, 1744-1752, 2012). […], and the transition time of primary to secondary CPPs was measured at 37° C. using a nephelometer for up to 600 minutes.

[4] = system: transition of primary CPPs to secondary CPPs; assay: calciprotein particle (CPP) maturation time in human serum (Pasch test, FIG. 1); details: human pooled serum, 37° C., nephelometer up to 600 minutes
Description: The y-axis indicates the half-maximal transition time (T50) in minutes of primary CPPs to secondary CPPs. IP6: myo-inositol hexakisphosphate (Biosynth); IS6: myo-inositol hexakissulfate (Sigma); IP2S4: 4,6-di-(O-phosphate)-myo-inositol 1,2,3,5-tetra-O-sulfate; IT2S4: 4,6-di-(O-thiophosphate)-myo-inositol 1,2,3,5-tetra-O-sulfate; IP5-PEG: 2-PEG(2000)-myo-inositol pentakisphosphate.
as §2
Society of Nephrology 23, 1744-1752, 2012). The experiment was carried out by mixing a calcium solution, human pooled serum, the test compound at the final concentration indicated and a phosphate solution, and the transition time of primary to secondary CPPs was measured at 37° C. using a nephelometer for up to 600 minutes.

## COCCOCCO[C@@H]1[C@@H](OP(=O)(O)O)[C@H](OP(=O)(O)O)[C@@H](OP(=O)(O)O)[C@@H](OP(=O)(O)O)[C@H]1OP(=O)(O)O [OEG2-IP5]
[1]
  concentration achieving complete inhibition of CaP adhesion: 50 µM
[2]
  concentration for complete inhibition of CaP precipitation (>90% reduction of CaP precipitates vs control): 30 µM
  concentration for inhibition of CaP aggregation (>50% reduction of mean size of aggregates vs control): 1 µM

## COCCOCCO[C@@H]1C(OP(=O)(O)O)[C@H](OCCOCCOC)[C@@H](OP(=O)(O)O)C(OP(=O)(O)O)[C@H]1OP(=O)(O)O (stereo partly shown) [INS-3001]
[3]
  activity on transition time of primary to secondary CPPs: more active than IP6; also recorded: more active than the compounds having one PEG moiety

## O=P(O)(O)OC1[C@@H](OP(=O)(O)O)[C@H](OP(=O)(O)O)C(O)[C@H](OP(=O)(O)O)[C@H]1OP(=O)(O)O (stereo partly shown) [IP5, myo-inositol pentakisphosphate, reference compound]
[2]
  concentration at which CaP precipitation was promoted: 30 µM

## O=S(=O)(O)O[C@@H]1[C@@H](OP(O)(O)=S)[C@H](OS(=O)(=O)O)[C@H](OS(=O)(=O)O)[C@H](OS(=O)(=O)O)[C@H]1OP(O)(O)=S [IT2S4, 4,6-di-(O-thiophosphate)-myo-inositol 1,2,3,5-tetra-O-sulfate]
[4]
  activity on half-maximal transition time (T50) of primary CPPs to secondary CPPs: more active than IP6

## O=S(=O)(O)OC1C(OS(=O)(=O)O)C(OS(=O)(=O)O)C(OS(=O)(=O)O)C(OS(=O)(=O)O)C1OS(=O)(=O)O (stereo not shown) [IS6, myo-inositol hexakissulfate, reference compound]
[2]
  effect on CaP precipitation/crystallization in words: weak inhibitory properties

## cyclohexane hexacarboxylic acid [IC6, reference compound]
[2]
  effect on CaP precipitation/crystallization in words: weak inhibitory properties

## COCCOCCOCCOCCOCCOCCOCCOCCOCCOCCOCCO[C@@H]1[C@@H](OP(=O)(O)O)[C@H](OP(=O)(O)O)[C@@H](OP(=O)(O)O)[C@@H](OP(=O)(O)O)[C@H]1OP(=O)(O)O [OEG11-IP5]
[1]
  concentration achieving complete inhibition of CaP adhesion: 50 µM
[2]
  aggregation inhibitory concentration: 300 nM

## 2-PEG(2000)-myo-inositol pentakisphosphate [Compound 2-PEG-IP5]
[4]
  activity on half-maximal transition time (T50) of primary CPPs to secondary CPPs: far more active than any other compound

## O=P(O)(O)O[C@H]1[C@H](OP(=O)(O)O)[C@@H](OP(=O)(O)O)[C@H](OP(=O)(O)O)[C@@H](OP(=O)(O)O)[C@H]1OP(=O)(O)O [IP6, myo-inositol hexakisphosphate, reference compound]
[2]
  concentration at which CaP precipitation was promoted: 10 µM

## O=P(O)(O)OC1C(OS(=O)(=O)O)C(OP(=O)(O)O)C(OS(=O)(=O)O)C(OS(=O)(=O)O)C1OS(=O)(=O)O (stereo not shown) [IP2S4, 4,6-di-(O-phosphate)-myo-inositol 1,2,3,5-tetra-O-sulfate]
[4]
  activity on half-maximal transition time (T50) of primary CPPs to secondary CPPs: more active than IP6
